Data on one compound can be found in patent US11246936B2, “Compositions and methods using rebaudioside X to provide sweetness enhancement” (The Coca-Cola Company, priority 2013, dated 2022).

Assay [1] has as its system panelists. The assay can be described thus: Taste evaluation of sweetness against sucrose reference beverages (water and citric acid buffer). Format: in vivo, human. As for the experimental part:
Solutions were made by dissolving all ingredients in treated water. For citric acid buffer, citric acid and potassium citrate were added in a sufficient amount to bring the pH to 3.2. Finished products were filled in 300 ml-glass bottles and stored in the refrigerator. The Rebaudioside X used was 95% pure and obtained from Pure Circle. Beverages were kept in the refrigerator overnight and tasted cold the following day. Two panelists evaluated the beverages. Bottles were removed from the refrigerator and about 50 ml of the beverage was poured in 4 oz-plastic cups. Taste test were conducted in two sessions for each type of solution: water and citric acid buffer. In the first session, the sweetness level of the beverages containing 20 ppm and 30 ppm rebaudioside X were determined against the 0.5%, 1%, and 1.5% sucrose beverages. In the second session, the sweetness level of the beverages containing 7% sucrose and either 20 ppm or 30 ppm rebaudioside X were determined against the 7%, 8%, 9%, and 10% sucrose beverages. Panelists were given mineral water for rinsing before tasting and between tasting different samples. Unsalted crackers were also given to panelists to eat followed by rinsing their mouth with mineral water before tasting the next sample.

Assay [2] has as its system panelists. The assay can be described thus: Taste evaluation of lemon-lime carbonated soft drinks against HFCS-55 controls. Format: in vivo, human. As for the experimental part:
Lemon-lime carbonated soft drinks (CSD) were made by dissolving all ingredients in an amount of water sufficient to make a syrup from which finished beverages were made by adding 5.5 parts carbonated water to 1 part syrup (beverage carbonation target of 3.7 volumes of CO2). Products were prepared with the ingredients provided in Table 8: The beverages were aged for seven days at room temperature and then cooled at 4° C. before tasting. Four panelists evaluated the beverages. Bottles were removed from the refrigerator and about 20 ml of beverage poured in 2 oz-plastic cups. Mineral water was given for palate rinsing before tasting and between tasting different samples.

The test system of the next assay is human sense of taste. The assay can be described thus: Sweetness recognition threshold. It is filed as in vivo. From the text:
The term “sweetness recognition threshold,” as generally used herein, is the lowest known concentration of a sweet compound that is perceivable by the human sense of taste. As such, rebaudioside X enhances or potentiates the sweet taste of sweeteners without providing any noticeable sweet taste by itself when present below its sweetness recognition threshold concentration. However, rebaudioside X may provide a detectable sweet taste at concentrations above its sweetness recognition threshold. The sweetness recognition threshold of rebaudioside X is about 20 to about 30 ppm.
The term “sucrose equivalence,” as used herein, refers to the sweetness of a composition containing at least one […] sweetener against a sucrose reference. Typically, taste panelists are trained to detect sweetness of reference sucrose solutions containing between 1-15% sucrose (w/v). Other non-sucrose sweeteners are then tasted at a series of dilutions to determine the concentration of the non-sucrose, i.e. rebaudioside X, sweetener that is as sweet (i.e. isosweet) to a given percent sucrose reference.

Take `C=C1C[C@@]23CC[C@H]4[C@@](C)(CCC[C@@]4(C)C(=O)O[C@@H]4O[C@H](CO)[C@@H](O)[C@H](O[C@@H]5O[C@H](CO)[C@@H](O)[C@H](O)[C@H]5O)[C@H]4O[C@@H]4O[C@H](CO)[C@@H](O)[C@H](O)[C@H]4O)[C@@H]2CC[C@]1(O[C@@H]1O[C@H](CO)[C@@H](O)[C@H](O[C@@H]2O[C@H](CO)[C@@H](O)[C@H](O)[C@H]2O)[C@H]1O[C@@H]1O[C@H](CO)[C@@H](O)[C@H](O)[C@H]1O)C3` [rebaudioside X, 13-[(2-O-β-D-glucopyranosyl-3-O-β-D-glucopyranosyl-β-D-glucopyranosyl)oxy] ent kaur-16-en-19-oic acid-[(2-O-β-D-glucopyranosyl-3-O-β-D-glucopyranosyl-β-D-glucopyranosyl) ester]]: the “overall sweetness similar to sucrose beverage” value is reported as ~9.5 % sucrose in the assay with panelists [1] (7% sucrose and 20 ppm rebaudioside X in water or citric acid buffer, between the 9% and 10% sucrose beverage (average)); ~10 % sucrose in the assay with panelists [1] (7% sucrose and 30 ppm rebaudioside X in either water or citric acid buffer); ~1 % sucrose in the assay with panelists [1] (20 ppm rebaudioside X in either water or citric acid buffer (pH 3.2), two panelists, tasted cold); ~1.5 % sucrose with panelists [1] (30 ppm rebaudioside X in either water or citric acid buffer (pH 3.2), two panelists, tasted cold). Further, the sweetness enhancement entry is on record as “about 1.5%” in the assay with panelists [1] (20 and 30 ppm rebaudioside X added to a beverage containing 7% sucrose); “about 2.0%” in the assay on panelists [2] (30 ppm rebaudioside X added to a beverage containing 8% HFCS-55 (same sweetness as 8% sucrose)). Further, the “increase in isosweetness provided by rebaudioside X” value in the assay with panelists [1] (20 ppm rebaudioside X in 7.0% (w/v) sucrose beverage) is on record as 2.5 % (w/v). The isosweet sucrose solution in the assay with panelists [1] (beverage containing 7.0% (w/v) sucrose and 20 ppm rebaudioside X) is given as 9.5 % (w/v); with panelists [1] (solution containing 20 ppm rebaudioside X, no other sweetener), 1.0 % (w/v). The “overall sweetness similar to HFCS-55 beverage” value in the assay with panelists [2] (8% HFCS-55 and 30 ppm rebaudioside X in lemon lime CSD, four panelists, 10% HFCS-55 same sweetness as 10% sucrose) is given as “about 10 % HFCS-55”. For the same compound, in the assay with human sense of taste (at about 20-30 ppm rebaudioside X), the “sucrose equivalence provided at the sweetness recognition threshold” value is listed as 1.0-1.5%. The sweetness recognition threshold in the assay with human sense of taste (lowest concentration perceivable by the human sense of taste) is on record as 20-30 ppm.
